Assay results reported in PubChem BioAssay (NCI).
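Cultured in 96-well plates, cells were exposed to test compound for 48 hours across five concentrations. Here, GI50 denotes the concentration required for 50% inhibition of growth. The concentration for full growth arrest is given as TGI.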

Legend:
Test in all cases: DTP human tumour cell line panel, 48 h
[1] = system: OVCAR-3 ovarian
[2] = system: HS 578T breast
[3] = system: RXF 393 renal
[4] = system: TK-10 renal
[5] = system: HL-60(TB) leukemia
[6] = system: ACHN renal
[7] = system: NCI-H226 lung
[8] = system: A549 NSCLC
[9] = system: SF-539 CNS
[10] = system: MDA-MB-468 breast
[11] = system: OVCAR-5 ovarian
[12] = system: OVCAR-8 ovarian
[13] = system: UO-31 renal
[14] = system: M14 melanoma
[15] = system: HOP-92 NSCLC
[16] = system: IGROV1 ovarian
[17] = system: RPMI-8226 leukemia
[18] = system: CCRF-CEM leukemia
[19] = system: SF-295 CNS
[20] = system: CAKI-1 renal
[21] = system: MCF7 breast
[22] = system: SW-620 colon
[23] = system: MDA-MB-435
[24] = system: SNB-19 CNS
[25] = system: MALME-3M melanoma
[26] = system: OVCAR-4 ovarian
[27] = system: NCI-H23 lung

**Q.** What does the source list for COc1ccc(NC(=O)Nc2nc3ccc([N+](=O)[O-])cc3s2)cc1?
**A.** TGI [1]: 5.36 µM; GI50 [2]: 2.81 µM; TGI [2]: 8.21 µM; GI50 [3]: 2.54 µM; TGI [3]: 7.24 µM; GI50 [4]: 3.66 µM; TGI [4]: 10.7 µM; GI50 [5]: 2.1 µM; TGI [5]: 5.84 µM; GI50 [6]: 2.48 µM; TGI [6]: 7.09 µM; GI50 [7]: 2.31 µM; TGI [7]: 6.63 µM; GI50 [8]: 2.23 µM; TGI [8]: 6.22 µM; GI50 [9]: 2.41 µM; TGI [9]: 5.95 µM; GI50 [10]: 1.66 µM; TGI [10]: 4.17 µM; GI50 [11]: 2.8 µM; TGI [11]: 9.95 µM; GI50 [12]: 3.18 µM; TGI [12]: 13.7 µM; GI50 [13]: 2.51 µM; TGI [13]: 8.98 µM; GI50 [14]: 2.73 µM; TGI [14]: 9.02 µM; GI50 [15]: 1.92 µM; TGI [15]: 5.97 µM; GI50 [16]: 3.37 µM; TGI [16]: 15.3 µM; GI50 [17]: 1.83 µM; TGI [17]: 5.97 µM; GI50 [18]: 2.27 µM; TGI [18]: 7.69 µM; GI50 [19]: 1.9 µM; TGI [19]: 4.3 µM; GI50 [20]: 2.08 µM; TGI [20]: 5.01 µM; GI50 [21]: 2.2 µM; TGI [21]: 6.31 µM; GI50 [22]: 3.07 µM; TGI [22]: 13.8 µM; GI50 [23]: 1.92 µM; TGI [23]: 5.68 µM; GI50 [24]: 2.85 µM; TGI [24]: 16.8 µM; GI50 [25]: 2.19 µM; TGI [25]: 6.21 µM; GI50 [26]: 2.84 µM; TGI [26]: 12.6 µM; GI50 [27]: 2.22 µM; TGI [27]: 6.64 µM
